pIC50: −log10 of the molar value.

Data on one compound can be found in US20070059299A1, “S-adenosyl methionine decarboxylase inhibition for the treatment of a herpes simplex virus infection” (Institut National de la Sante et de la Recherche Medicale …, priority 2002, published 2007).

One test has as its system HSV. The test can be described thus: HSV replication in cellulo. The class given is cell-based. As to conditions: read-out: HSV inhibition in cellulo IC50. As for the experimental part:
(§1) Three HSV 1 reference strains were tested : SC16 (acyclovir-susceptible reference strain; (Hill et al., 1975)), DM21 (acyclovir-resistant reference strain derived from SC16; (Efstathiou et al., 1989)) and TP 2.5 (foscarnet-resistant reference strain derived from SC16; (Larder and Darby, 1985)). Antiviral assays were performed in duplicate on HEp-2 cells seeded in 96 wells microplates. Dilutions of virus and drugs were prepared in E-MEM without FCS. Cells were first treated for 24 hours with MGBG using a series of 6 twofold serial dilutions from 12.5 to 400 μM. Infection was then achieved with 5 tenfold dilutions of cell-associated virus (10^−1 to 10^−5). Each dilution was incubated with a series of 6 concentrations of each antiviral drug (from 12.5 to 400 μM in twofold dilutions for MGBG, from 0.16 to 500 μM in fivefold dilutions for acyclovir and from 31 to 1000 μM in twofold dilutions for foscarnet). […] After incubation at 36° C. with 5% CO2 for 24 hours post-infection, medium was replaced with freshly prepared dilutions of MGBG. Viral multiplication was checked 24 hours afterwards by an ELISA (Morfin et al., 1999), using a rabbit monoclonal anti-HSV 1 antibody (BO 114, Dako) and a protein A peroxidase-conjugated (BioRad). The substrate, 2,2′-azino-di(3-ethyl-benzthiazoline) sulfonic acid (ABTS) diluted in ABTS buffer (Boehringer, Mannheim), was added to each well. After 30 min at room temperature, the plates were briefly agitated and optical densities were read at 405 nm with a multichannel spectrophotomoter (Titertek-Multiskan). Optical density values were used with the Biolise program (Life Sciences International) to calculate the concentration of the drug causing a 50% inhibition of viral replication (IC50) by logistic regression analysis.

Test [1] deals with acyclovir-susceptible reference strain SC16. The test can be described thus: Antiviral susceptibility testing by ELISA on HEp-2 cells, strain SC16. The class given is cell-based, HSV 1. As to conditions: HEp-2, read-out: Susceptibility of strain SC16 (concentration causing 50% inhibition of viral replication, IC50), median. As for the experimental part: as §1
The capacity of MGBG to preclude infection of three HSV-1 acyclovir and/or foscarnet resistant strains was tested. […] The ED values were determined.

With `CC(C=NNC(=N)N)=NNC(=N)N` [MGBG, methylglyoxal bis(guanylhydrazone)], the pIC50 in the test with HSV is 4.36; in test [1] it was 3.99.
